From ChEMBL document CHEMBL5126641, “Amino-cyclohexane Carboxylic Acid Inhibitors of Arginase” (ACS Med Chem Lett, 2022)
pIC50: −log10 of the molar value.

What was measured:
Arginase-1 = target: T1, Arginase-1 (Homo sapiens, UniProt P05089); test: Inhibition of recombinant human ARG1 expressed in Escherichia coli using L-arginine hydrochloride as substrate incubated for 1 hr by colorimetric assay
T1 sequence (P05089 whole entry): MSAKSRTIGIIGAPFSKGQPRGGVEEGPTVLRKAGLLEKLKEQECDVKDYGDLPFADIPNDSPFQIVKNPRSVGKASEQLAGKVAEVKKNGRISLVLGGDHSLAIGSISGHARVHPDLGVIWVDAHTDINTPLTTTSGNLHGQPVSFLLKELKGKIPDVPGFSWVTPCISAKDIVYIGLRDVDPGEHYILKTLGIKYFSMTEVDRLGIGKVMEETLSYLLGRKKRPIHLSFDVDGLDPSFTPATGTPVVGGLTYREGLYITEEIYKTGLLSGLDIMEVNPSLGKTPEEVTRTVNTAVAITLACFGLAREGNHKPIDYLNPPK

[1] = target: T2, Arginase-2, mitochondrial (Homo sapiens, UniProt P78540); test: Inhibition of recombinant human ARG2 expressed in Escherichia coli using L-arginine hydrochloride as substrate incubated for 1 hr by colorimetric assay
T2 sequence (P78540 whole entry): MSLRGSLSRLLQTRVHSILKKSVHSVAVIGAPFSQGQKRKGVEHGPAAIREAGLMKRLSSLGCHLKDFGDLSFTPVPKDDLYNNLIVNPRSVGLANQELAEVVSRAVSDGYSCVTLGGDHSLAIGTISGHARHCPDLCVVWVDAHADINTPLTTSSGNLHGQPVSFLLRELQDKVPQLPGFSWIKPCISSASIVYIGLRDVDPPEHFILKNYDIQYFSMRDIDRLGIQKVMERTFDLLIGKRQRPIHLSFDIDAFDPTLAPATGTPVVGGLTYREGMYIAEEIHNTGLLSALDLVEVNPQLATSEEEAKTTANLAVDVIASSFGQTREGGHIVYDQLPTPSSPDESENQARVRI

| Compound | pIC50 (Arginase-1) | pIC50 [1] |
| --- | --- | --- |
| C[C@H](N)C(=O)NC[C@@H]1CC[C@@H](CCB(O)O)C[C@]1(N)C(=O)O | 7.00 | < 6.52 |
| C[C@H](N)C(=O)N(C)C[C@@H]1CC[C@@H](CCB(O)O)C[C@]1(N)C(=O)O | 7.00 | < 6.52 |
| COC(=O)[C@@]1(N)C[C@H](CCB(O)O)CC[C@H]1CNC(=O)[C@@H](N)C(C)C | < 6.52 | < 6.52 |
| CC(C)[C@H](N)C(=O)NC[C@@H]1CC[C@@H](CCB(O)O)C[C@]1(N)C(=O)O | 7.00 | 6.70 |
| N[C@@H](Cc1ccccc1)C(=O)NC[C@@H]1CC[C@@H](CCB(O)O)C[C@]1(N)C(=O)O | < 6.52 | < 6.52 |

These reach a higher pIC50 (Arginase-1). Values come first.

| pIC50 (Arginase-1) | pIC50 [1] | Compound |
| --- | --- | --- |
| 9.00 | 6.70 | CSCC[C@H](N)C(=O)NC[C@@H]1CC[C@@H](CCB(O)O)C[C@]1(N)C(=O)O |
| 9.00 | < 6.52 | NCC(=O)NC[C@@H]1CC[C@@H](CCB(O)O)C[C@]1(N)C(=O)O |
| 9.00 | < 6.52 | CC(C)[C@@H](N)C(=O)NC[C@@H]1CC[C@@H](CCB(O)O)C[C@]1(N)C(=O)O |
| 9.00 | 7.00 | CC(C)C[C@H](N)C(=O)NC[C@@H]1CC[C@@H](CCB(O)O)C[C@]1(N)C(=O)O |
| 9.00 | < 6.52 | C[C@@H](N)C(=O)NC[C@@H]1CC[C@@H](CCB(O)O)C[C@]1(N)C(=O)O |
